Laboratory results from the supplement of paper PMC4862054.

Columns and labels:
Settings in all cases: incubation time: 72 h
DU-4475 [1] = assay: normalised response (% of control), CellTox Green; higher = less cell death (100 = DMSO, 0 = benzethonium chloride kill control)
Procedure, shortened: (§1)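 Plates were normalised with 0.1 % DMSO as 100 and a positive kill control as 0. Breast cancer cell lines in 20 µl suspension had been seeded into 384-well plates with compound at 5 concentrations in 10-fold steps over a compound-specific 10,000-fold range, incubated 72 h, and read for CellTox Green fluorescence (485/520 nm) followed by CellTiter-Glo luminescence. Each value is the normalised signal at a single concentration.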

MFM-223 [2] = assay: as above
Procedure, shortened: as §1

MDA-MB-231 [3] = assay: as above
Procedure, shortened: as §1

MDA-MB-453 [4] = assay: as above
Procedure, shortened: as §1

CAL-85-1 [5] = assay: as above
Procedure, shortened: as §1

CAL-120 [6] = assay: as above
Procedure, shortened: as §1

HCC1937 [7] = assay: as above
Procedure, shortened: as §1

HCC1143 [8] = assay: as above
Procedure, shortened: as §1

MDA-MB-436 [9] = assay: as above
Procedure, shortened: as §1

Hs578T [10] = assay: as above
Procedure, shortened: as §1

BT-474 [11] = assay: as above
Procedure, shortened: as §1

MCF-10A [12] = assay: as above
Procedure, shortened: as §1

HCC1599 [13] = assay: as above
Procedure, shortened: as §1

MDA-MB-468 [14] = assay: as above
Procedure, shortened: as §1

CAL-148 [15] = assay: as above
Procedure, shortened: as §1

BT-549 [16] = assay: as above
Procedure, shortened: as §1

HDQ-P1 [17] = assay: as above
Procedure, shortened: as §1

CAL-51 [18] = assay: as above
Procedure, shortened: as §1

DU-4475 [19] = assay: normalised response (% of control), CellTiter-Glo; higher = more viable cells (100 = DMSO, 0 = benzethonium chloride kill control)
Procedure, shortened: as §1

MFM-223 [20] = assay: as above
Procedure, shortened: as §1

MDA-MB-231 [21] = assay: as above
Procedure, shortened: as §1

MDA-MB-453 [22] = assay: as above
Procedure, shortened: as §1

CAL-85-1 [23] = assay: as above
Procedure, shortened: as §1

CAL-120 [24] = assay: as above
Procedure, shortened: as §1

HCC1937 [25] = assay: as above
Procedure, shortened: as §1

SK-BR-3 = assay: as above
Procedure, shortened: as §1

HCC1143 [26] = assay: as above
Procedure, shortened: as §1

MDA-MB-436 [27] = assay: as above
Procedure, shortened: as §1

Hs578T [28] = assay: as above
Procedure, shortened: as §1

BT-474 [29] = assay: as above
Procedure, shortened: as §1

MCF-10A [30] = assay: as above
Procedure, shortened: as §1

HCC1599 [31] = assay: as above
Procedure, shortened: as §1

MDA-MB-468 [32] = assay: as above
Procedure, shortened: as §1

CAL-148 [33] = assay: as above
Procedure, shortened: as §1

BT-549 [34] = assay: as above
Procedure, shortened: as §1

HDQ-P1 [35] = assay: as above
Procedure, shortened: as §1

CAL-51 [36] = assay: as above
Procedure, shortened: as §1

| Compound | normalised response (DU-4475 [1]) | normalised response (MFM-223 [2]) | normalised response (MDA-MB-231 [3]) | normalised response (MDA-MB-453 [4]) | normalised response (CAL-85-1 [5]) | normalised response (CAL-120 [6]) | normalised response (HCC1937 [7]) | normalised response (HCC1143 [8]) | normalised response (MDA-MB-436 [9]) | normalised response (Hs578T [10]) | normalised response (BT-474 [11]) | normalised response (MCF-10A [12]) | normalised response (HCC1599 [13]) | normalised response (MDA-MB-468 [14]) | normalised response (CAL-148 [15]) | normalised response (BT-549 [16]) | normalised response (HDQ-P1 [17]) | normalised response (CAL-51 [18]) | normalised response (DU-4475 [19]) | normalised response (MFM-223 [20]) | normalised response (MDA-MB-231 [21]) | normalised response (MDA-MB-453 [22]) | normalised response (CAL-85-1 [23]) | normalised response (CAL-120 [24]) | normalised response (HCC1937 [25]) | normalised response (SK-BR-3) | normalised response (HCC1143 [26]) | normalised response (MDA-MB-436 [27]) | normalised response (Hs578T [28]) | normalised response (BT-474 [29]) | normalised response (MCF-10A [30]) | normalised response (HCC1599 [31]) | normalised response (MDA-MB-468 [32]) | normalised response (CAL-148 [33]) | normalised response (BT-549 [34]) | normalised response (HDQ-P1 [35]) | normalised response (CAL-51 [36]) |
| --- | --- | --- | --- | --- | --- | --- | --- | --- | --- | --- | --- | --- | --- | --- | --- | --- | --- | --- | --- | --- | --- | --- | --- | --- | --- | --- | --- | --- | --- | --- | --- | --- | --- | --- | --- | --- | --- |
| C/C(=C\c1csc(C)n1)[C@@H]1C[C@@H]2O[C@]2(C)CCC[C@H](C)[C@H](O)[C@@H](C)C(=O)C(C)(C)[C@@H](O)CC(=O)O1 [Patupilone] (10 nM) | 99.5% | 96.3% | 92.9% | 97.9% | 79.5% | 93.6% | 99.4% | 108% | 76.8% | 84% | 95.7% | 103% | 106% | 34.5% | 102% | 97.3% | 110% | 29.3% | 104% | 107% | 97.9% | 101% | 80.2% | 105% | 100% | 99.7% | 77.5% | 79.9% | 90.9% | 94.6% | 89.1% | 114% | 53.4% | 105% | 55.1% | 98.7% | 56% |
| NS(=O)(=O)OC[C@@H]1C[C@@H](n2ccc3c(N[C@H]4CCc5ccccc54)ncnc32)C[C@@H]1O [Pevonedistat] (100 nM) | 97.8% | 65.2% | 119% | 112% | 81.5% | 102% | 119% | 120% | 102% | 107% | 102% | 108% | 104% | 128% | 94.7% | 106% | 99.8% | 36.4% | 68.8% | 79.1% | 118% | 88.9% | 77.8% | 91.1% | 96.3% | 35.6% | 90.1% | 82.9% | 98.7% | 114% | 113% | 75.6% | 56.2% | 120% | 73.2% | 102% | 51.5% |
| CN(C)C[C@@H]1CCn2cc(c3ccccc32)C2=C(C(=O)NC2=O)c2cn(c3ccccc23)CCO1 [Ruboxistaurin] (100 nM) | 99.3% | 103% | 112% | 92.7% | 109% | 103% | 90% | 99.5% | 79.8% | 66.2% | 98.9% | 95.6% | 96.2% | 141% | 102% | 109% | 102% | 101% | 95.5% | 99.8% | 96.1% | 105% | 96.6% | 92.7% | 95.1% | 93% | 94.7% | 98% | 98% | 99.5% | 89.3% | 105% | 93.8% | 94.5% | 102% | 99.3% | 105% |
| CC[C@]1(O)C[C@H]2CN(CCc3c([nH]c4ccccc34)[C@@](C(=O)OC)(c3cc4c(cc3OC)N(C=O)[C@H]3[C@@](O)(C(=O)OC)[C@H](OC(C)=O)[C@]5(CC)C=CCN6CC[C@]43[C@@H]65)C2)C1 [Vincristine] (10 nM) | 98.7% | 94.7% | 53.4% | 87.5% | 45% | 93.9% | 93.3% | 98.8% | 56% | 88.5% | 76.7% | 51.6% | 90.7% | -5.1% | 71.5% | 77.1% | 44.8% | 73.2% | 86.3% | 90.8% | 76.7% | 70.6% | 30.6% | 66.8% | 75.7% | 17.8% | 53.5% | 70.8% | 82.6% | 71% | 60.5% | 63.5% | 20.9% | 64.6% | 38.2% | 71% | 86.8% |
| O=C1NC(=O)[C@@H](c2cn3c4c(cccc24)CCC3)[C@@H]1c1c[nH]c2ccccc12 [Tivantinib] (10 nM) | 100% | 98.9% | 105% | 106% | 102% | 103% | 106% | 105% | 90.1% | 110% | 97.8% | 84.5% | 103% | 131% | 78.8% | 104% | 109% | 102% | 104% | 99.6% | 103% | 85% | 99.2% | 96.3% | 97.6% | 99.4% | 97.8% | 102% | 92.6% | 104% | 103% | 105% | 99.6% | 98.4% | 98.3% | 100% | 106% |
| C[C@]12CC[C@H](O)CC1=CC[C@@H]1[C@@H]2CC[C@]2(C)C(c3cccnc3)=CC[C@@H]12 [Abiraterone] (50 nM) | 101% | 108% | 58% | 104% | 95% | 101% | 116% | 109% | 96.5% | 107% | 100% | 63.7% | 110% | 128% | 106% | 96.5% | 111% | 105% | 107% | 105% | 103% | 99.7% | 105% | 106% | 95.1% | 103% | 104% | 99.7% | 104% | 104% | 99.8% | 124% | 101% | 108% | 101% | 100% | 81.5% |
